Source: patent US11845760B2, “PRMT5 inhibitors” (AMGEN INC., priority 2020, dated 2023)
Where two headings read alike, the source gives them in different places.

Tests used:
HCT116 MTAP null cells = assay: HCT116 MTAP null cell line proliferation (CellTiter-Glo cell viability, 6 days); assay type: cell-based; details: HCT116 MTAP null cells, 6 days of treatment, CellTiter-Glo cell viability, read-out: HCT-116 MTAP null IC50
Summary of the method: (§1)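 Viability by CellTiter-Glo after 6 days' drug exposure in wild-type HCT116 and its MTAP-null knockout, with DMSO-only control. Dosing used either 1:3 steps (top 1 or 10 μM) or 22 points in 1:2 steps (top 10 or 50 μM). IC50 taken where the fitted curve crosses 50% of control.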

HCT116 WT cells = assay: HCT116 WT cell line proliferation (CellTiter-Glo cell viability, 6 days); assay type: cell-based; details: HCT116 WT (parent) cells, 6 days of treatment, CellTiter-Glo cell viability, read-out: HCT-116 WT IC50
Summary of the method: as §1

IC50 (HCT116 MTAP null cells; HCT116-MTAP null, 144 h) | IC50 (HCT116 WT cells; Homo sapiens, HCT-116, 144 h) | IC50 (HCT116 MTAP null cells) | IC50 (HCT116 WT cells) | SMILES
0.005 µM | 0.04 µM | – | – | Cn1ncc2c(N)nc3cc(F)c(C(=O)N4CCOC[C@@H]4c4ccc(S(F)(F)(F)(F)F)cc4)cc3c21 [Example 450, (4-amino-7-fluoro-1-methyl-1H-pyrazolo [4,3-c]quinolin-8-yl)((3S)-3-(4-(pentafluoro-lambda~6~-sulfanyl)phenyl)-4-morpholinyl)methanone]
0.092 µM | 1.75 µM | – | – | COC(=O)[C@@H]1CN(C(=O)c2cc3c4c(c(N)nc3cc2F)COC4)C[C@H]1c1ccc(C(F)(F)F)cc1 (single isomer, unassigned) [Example 480]
3.48 µM | > 10 µM | – | – | Nc1nc2ccc(C(=O)N3CCOCC3c3cccc(F)c3)cc2c2c1COC2 (racemic) [Example 364, (4-amino-1,3-dihydrofuro[3,4-c]quinolin-8-yl)-[rac-(3S)-3-(3-fluorophenyl)morpholin-4-yl]methanone]
0.182 µM | 7.57 µM | – | – | Nc1nc2ccc(C(=O)N3CCOC[C@@H]3c3cccc(Cl)c3)cc2c2c1COC2 (single isomer, unassigned) [Example 579]
0.052 µM | 1.61 µM | – | – | C[C@H]1COC[C@@H](c2ccc(C#N)cc2)N1C(=O)c1cc2c3c(c(N)nc2cn1)COC3 (racemic) [Example 389, 4-((3R,5S)-4-((4-amino-1,3-dihydrofuro[3,4-c][1,7]naphthyridin-8-yl)carbonyl)-5-methyl-3-morpholinyl)benzonitrile and 4-((3S,5R)-4-((4-amino-1,3-dihydrofuro[3,4-c][1,7]naphthyridin-8-yl)carbonyl)-5-methyl-3-morpholinyl)benzonitrile]
0.33 µM | 21.5 µM | – | – | Nc1nc2cnc(C(=O)N3CCOCC3c3c(F)cc(Br)cc3F)cc2c2c1COC2 (racemic) [Example 505, (4-amino-1,3-dihydrofuro[3,4-c][1,7]naphthyridin-8-yl)((3R)-3-(4-bromo-2,6-difluorophenyl)-4-morpholinyl)methanone and (4-amino-1,3-dihydrofuro[3,4-c][1,7]naphthyridin-8-yl)((3S)-3-(4-bromo-2,6-difluorophenyl)-4-morpholinyl)methanone]
– | – | 0.107 µM | 2.89 µM | Nc1nc2cc(Cl)c(C(=O)N3CCOCC3c3ccc(F)c(C(F)(F)F)c3)cc2c2c1COC2 (racemic) [Example 350, (4-amino-7-chloro-1,3-dihydrofuro[3,4-c]quinolin-8-yl)((3R)-3-(4-fluoro-3-(trifluoromethyl)phenyl)-4-morpholinyl)methanone and (4-amino-7-chloro-1,3-dihydrofuro[3,4-c]quinolin-8-yl)((3S)-3-(4-fluoro-3-(trifluoromethyl)phenyl)-4-morpholinyl)methanone]
0.03 µM | 2.02 µM | – | – | C[C@@H]1COC[C@H](c2ccc(C(F)(F)F)cn2)N1C(=O)c1ccc2nc(N)c3c(cnn3C)c2c1 [Example 370, (4-amino-3-methyl-3H-pyrazolo[3,4-c]quinolin-8-yl)((3R,5S)-3-methyl-5-(5-(trifluoromethyl)-2-pyridinyl)-4-morpholinyl)methanone]
0.382 µM | 20.6 µM | – | – | Nc1nc2cc(F)c(C(=O)N3CC(O)(c4ccc(C(F)(F)F)cc4)C3)cc2c2c1COC2 [Example 429, (4-amino-7-fluoro-1,3-dihydrofuro[3,4-c]quinolin-8-yl)(3-hydroxy-3-(4-(trifluoromethyl)phenyl)-1-azetidinyl)methanone]
0.021 µM | 0.887 µM | – | – | Cn1ncc2c(N)nc3cc(F)c(C(=O)N4CC(O)(c5ccc(C(F)(F)F)cc5)C4)cc3c21 [Example 439, (4-amino-7-fluoro-1-methyl-1H-pyrazolo[4,3-c]quinolin-8-yl)(3-hydroxy-3-(4-(trifluoromethyl)phenyl)-1-azetidinyl)methanone]
> 1 µM | > 10 µM | – | – | Nc1nc2ccc(C(=O)N3CCOCC3c3ccc(Br)nn3)cc2c2c1COC2 (racemic) [Example 500, (4-amino-1,3-dihydrofuro[3,4-c]quinolim-8-yl)-[rac-(3S)-3-(6-bromopyridazin-3-yl)morpholin-4-yl]methanone]
